Patent US20240116990A1, “Compositions and Methods of Treatment Using CRRL 191” (Mayo Foundation for Medical Education and Research, priority 2022, published 2024)
Bridge positions count the residues as written; N and C are the ends.

What was measured:
human GC-A = target: T1, human GC-A (Homo sapiens, UniProt P16066); test: cGMP production in HEK293 cells overexpressing GC-A, 10 min stimulation; format: cell-based; parameters: Mean (intracellular cGMP): unit not given here; details: for Mean (intracellular cGMP): 10 min, HEK293 GC-A cells
T1 construct: host or cells: HEK293
T1 sequence (P16066 33-1061): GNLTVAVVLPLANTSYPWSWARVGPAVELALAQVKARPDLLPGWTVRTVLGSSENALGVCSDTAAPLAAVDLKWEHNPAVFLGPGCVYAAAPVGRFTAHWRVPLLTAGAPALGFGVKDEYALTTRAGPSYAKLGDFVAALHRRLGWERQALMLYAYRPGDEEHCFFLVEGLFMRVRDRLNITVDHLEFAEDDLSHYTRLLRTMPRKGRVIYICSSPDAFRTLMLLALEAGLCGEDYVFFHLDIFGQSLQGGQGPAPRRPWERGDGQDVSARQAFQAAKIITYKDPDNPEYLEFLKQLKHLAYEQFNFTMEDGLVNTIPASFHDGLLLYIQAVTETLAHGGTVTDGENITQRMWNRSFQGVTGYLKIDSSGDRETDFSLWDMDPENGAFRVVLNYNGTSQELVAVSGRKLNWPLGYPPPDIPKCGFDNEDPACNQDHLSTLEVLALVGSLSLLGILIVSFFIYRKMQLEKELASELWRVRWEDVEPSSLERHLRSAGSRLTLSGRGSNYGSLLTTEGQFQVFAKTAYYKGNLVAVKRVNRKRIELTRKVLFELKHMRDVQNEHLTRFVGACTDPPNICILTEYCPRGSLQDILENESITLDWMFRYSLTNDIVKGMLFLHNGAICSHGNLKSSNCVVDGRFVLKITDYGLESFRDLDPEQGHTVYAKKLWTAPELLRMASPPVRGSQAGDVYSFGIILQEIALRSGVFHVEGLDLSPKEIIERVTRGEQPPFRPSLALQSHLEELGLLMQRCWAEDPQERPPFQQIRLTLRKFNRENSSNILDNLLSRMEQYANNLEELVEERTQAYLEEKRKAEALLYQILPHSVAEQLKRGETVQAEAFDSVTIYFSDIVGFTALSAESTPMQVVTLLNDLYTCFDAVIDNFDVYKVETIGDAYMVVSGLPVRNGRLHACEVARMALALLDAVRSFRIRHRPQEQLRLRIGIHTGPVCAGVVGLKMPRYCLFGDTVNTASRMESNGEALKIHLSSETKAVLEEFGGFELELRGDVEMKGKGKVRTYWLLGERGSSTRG
Experimental: HEK293 cells stably transfected with human GC-A (cDNA clones from Origene, Rockville, MD) using Lipofectamine (Invitrogen, Grand Island, NY), are developed. Receptor overexpression is verified with immunofluorescence and western blotting. GC-A-transfected HEK293 (HEK/GCA) cells are maintained in Dulbecco's modified Eagle's medium (DMEM) supplemented with 10% fetal bovine serum (FBS), 100 U/ml penicillin, 100 U/ml streptomycin and 250 μg/ml G418.
Two in vitro cGMP assays are performed. Briefly, HEK/GCA cells are seeded in 48-well plates and cultured overnight to 80-90% confluency. The treatment buffer used in all experiments comprises Hank's Balanced Salt Solution (HBSS), 0.1% bovine serum albumin (BSA), 2 mM HEPES, and 0.5 mM 3-isobutyl-1-methylxanthine (IBMX, a non-specific phosphodiesterase inhibitor) (Sigma, St. Louis, MO).
After treatment, all cells are washed with phosphate buffered solution (PBS) once and lysed with 0.1M HCl.

[1] = tested on: Human cardiomyocytes (HCM); test: Human cardiomyocyte real-time apoptosis analysis (staurosporine-induced, Caspase-3/7 imaging); format: cell-based; details: 0.05 μM staurosporine, 90 hours, FIG. 6
Experimental: HCM cells are seeded in 96-well plate at approximately 80% confluency. Cells are treated with various concentrations of staurosporine (SP) to induce apoptosis. Based on the dose response curve, 0.05 μM of SP is selected to induce apoptosis in HCM.
Plates are then transferred to a time-lapsed, live imaging system IncuCyte S3 (Essen BioScience, Ann Arbor, MI) for apoptosis monitoring every 2 hours for a total of 90 hours. All treatment groups are performed in quintuplicates and repeated twice. Images are collected using the IncuCyte S3 Live-Cell Analysis System Software (Essen Bioscience, Ann Arbor, MI), and the data are analyzed for the Green Object Area of apoptotic bodies per well.

[2] = tested on: Spontaneously Hypertensive Rats (SHR); test: Plasma cGMP in spontaneously hypertensive rats; format: in vivo, rat
Experimental: All rat experiments are conducted following the Animal Welfare Act and the protocol is approved by the Mayo Clinic Institutional Animal Care and Use Committee (IACUC). […] Rats are included only if they are deemed healthy by the Institutional Veterinarian Department. Investigators who conduct the in vivo study are not blinded to treatments, but biochemical analysis is performed by a different investigator who is blinded to treatment.
On the day of the experiment, SHR rats are anesthetized with inactin (120 mg/kg, intraperitoneal injection, Sigma, St. Louis, MO). Rats are then kept on a heating pad at 38° C. to maintain a normal body temperature for the entire study. Vascular and bladder cannulation procedures are conducted. Briefly, a polyethylene-50 (PE-50) tube catheter is placed into one jugular vein for peptide infusion and another PE-50 tube is placed into the carotid artery for blood pressure (BP) monitoring (Sonometrics, London, Ontario, Canada) and blood sampling. After instrumentation, a 15-minute equilibrium period follows, and a 30-minute pre-infusion period is performed to collect baseline urine samples.
Four blood samples are collected to determine circulating cGMP levels: at baseline, before the end of drug infusion, at the middle of the washout clearance period, and before the end of the washout clearance period. Any blood loss in the rats is replaced with an equal volume of saline. BP is monitored and recorded every 15 minutes beginning after the initiation of peptide infusion. All collected blood are stored at −80° C. until assayed.
For the biochemical analysis, plasma cGMP levels are measured with a cGMP ELISA kit (Enzo Life Sciences, Farmingdale, NY).

[3] = 100 pmol/kg and 300 pmol/kg doses, FIG. 9B

## H-RALLTAPRSLRRSSCFGHKIDRINHVSNLGCNSFRYRITAREDKQGWA-OH (disulfide 15-31) [CRRL 191]
Human GC-A
  EC50: 0.48 nM
Human GC-A; 10^−6 M peptide
  Mean (intracellular cGMP): 135.48
Human GC-A; 10^−7 M peptide
  Mean (intracellular cGMP): 140.84
Human GC-A; 10^−8 M peptide
  Mean (intracellular cGMP): 152.04
Human GC-A; 10^−9 M peptide
  Mean (intracellular cGMP): 89.94
Human GC-A; 10^−10 M peptide
  Mean (intracellular cGMP): 35.57
Human GC-A; 10^−12 M peptide
  Mean (intracellular cGMP): 2.57
Human GC-A; 10 minutes of stimulation
  EC50 potency compared to ANP: greater potency
[1]; 10^−6 M
  cardiomyocyte apoptosis induced by SP: greatest effect on reducing cardiomyocyte apoptosis
[1]; 10^−8 M
  cardiomyocyte apoptosis induced by SP: reduced cardiomyocyte apoptosis
[1]; 10^−10 M
  cardiomyocyte apoptosis induced by SP: reduced cardiomyocyte apoptosis
[2]; [3]
  activating cGMP in plasma compared to ANP: more potent
  duration of plasma cGMP activation after peptide administration compared to ANP: more sustained activation
[2]; iv infusion, FIG. 9A
  plasma cGMP levels: increase
